# Measured values taken from patent publication US8455469B2, “Use of norgestimate as a selective inhibitor of TRPC3, TRPC6 and TRPC7 ion channels” (Sanofi, priority 2007, dated 2013).
# Experiments:
# TRPC6 [1] = molecular target: T1, TRPC6 (Homo sapiens, UniProt Q9Y210); experiment: Whole-cell patch clamp, AlF4- activated TRPC6 HEK293 cells; assay type: cell-based; conditions: 10 μM
# T1 construct: expressed in transfected cells; host or cells: HEK293 (inducible expression)
# T1 sequence (Q9Y210 1-931): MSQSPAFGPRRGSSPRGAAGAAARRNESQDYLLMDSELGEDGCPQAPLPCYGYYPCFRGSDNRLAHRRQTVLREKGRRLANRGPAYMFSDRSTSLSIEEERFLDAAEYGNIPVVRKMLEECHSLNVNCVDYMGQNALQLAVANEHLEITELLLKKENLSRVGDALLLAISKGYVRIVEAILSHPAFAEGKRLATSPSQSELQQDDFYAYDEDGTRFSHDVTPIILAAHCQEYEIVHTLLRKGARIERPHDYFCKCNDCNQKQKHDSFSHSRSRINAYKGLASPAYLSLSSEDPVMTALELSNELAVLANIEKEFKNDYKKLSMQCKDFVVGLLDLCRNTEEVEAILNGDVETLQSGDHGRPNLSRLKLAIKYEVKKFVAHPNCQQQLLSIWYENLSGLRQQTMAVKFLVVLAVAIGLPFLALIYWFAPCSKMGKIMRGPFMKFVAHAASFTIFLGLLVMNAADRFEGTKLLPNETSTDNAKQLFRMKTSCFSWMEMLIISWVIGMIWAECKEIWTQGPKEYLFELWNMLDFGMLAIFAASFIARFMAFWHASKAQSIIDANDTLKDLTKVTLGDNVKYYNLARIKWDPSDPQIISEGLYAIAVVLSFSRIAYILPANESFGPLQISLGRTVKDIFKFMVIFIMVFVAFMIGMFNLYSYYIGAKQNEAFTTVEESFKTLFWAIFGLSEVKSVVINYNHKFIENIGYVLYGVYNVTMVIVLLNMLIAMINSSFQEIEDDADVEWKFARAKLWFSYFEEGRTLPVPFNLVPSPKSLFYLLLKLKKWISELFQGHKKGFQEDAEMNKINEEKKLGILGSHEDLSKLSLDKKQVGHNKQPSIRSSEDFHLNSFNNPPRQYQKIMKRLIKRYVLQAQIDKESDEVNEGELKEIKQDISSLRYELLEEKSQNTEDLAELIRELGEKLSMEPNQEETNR
# Description: Inhibition of TRPC6- and TRPC5-mediated Ca^2+ -influx by norgestimate monitored in fluorometric experiments with cell populations was validated and compared with whole-cell patch clamp recordings of single cells. Channels were indirectly excited with the same stimulus for better comparability of the norgestimate effect. Aluminium tetrafluoride (AIF^4−) applied intracellularly via the patch pipette activates G-proteins by mimicking GTP (Sternweis & Gilman, 1982; Bigay et al., 1987). Subsequently TRPC channels are stimulated and mediate non-specific cationic currents (FIG. 3 A, B) When 10 μM norgestimate were applied to activated TRPC6 channels, 89.9 ±3.1% (n=15) of the current measured at resting membrane potential was blocked. This inhibition was reversible as current amplitude increased after norgestimate wash out (FIG. 3 A).
# Effect of 10 μM norgestimate (NG) on whole-cell currents evoked by AlF4^− infusion into induced TRPC6— (A) and TRPC5 HEK 293 (B) cells. Whole cell currents recorded at −70 mV (left panels) and the corresponding current-voltage (I-V) relationships are shown (right panels). […] The curves were obtained during voltage ramps from −100 to +80 mV. (C) Statistical analysis of the norgestimate effect on TRPC5— and TRPC6-mediated currents. 10 μM norgestimate inhibit 25.9±5.7% (n=20) of TRPC5-mediated currents and 89.9±3.1% (n=15) of TRPC6-mediated currents (P<0.001, Wilcoxon test, two-sided).
# TRPC6 [2] = molecular target: T1, TRPC6; experiment: FLIPR Ca2+ influx measurement, OAG-activated TRPC6 HEK293 cells; assay type: cell-based; conditions: 30 μM OAG
# Description: In general, cells are provided which express a TRPC channel. Such cells can be produced using genetic methods known to a person skilled in the art. After having induced the expression of the TRPC channel, cells are usually plated into e.g. microtiter plates and grown. Usually the cells grow at the bottom of multiwell plates and are fixed. Thereafter, the cells are generally washed and loaded with a dye in a suitable loading buffer, preferably with a fluorescent dye such as fluo4am. After having removed the loading buffer, the cells are incubated with the test compound or modulator, in particular with a biochemical or chemical test compound as described above, e.g. in the form of a chemical compound library. Ca^2+ measurements can be carried out using e.g. a Fluorescence Imaging Plate Reader (FLIPR). To stimulate Ca^2+ influx through the TRPC channel a channel activator such as OAG should generally be applied.
# TRPC3 and TRPC6 were directly activated by application of oleoyl-2-acetyl-sn-glycerol (OAG), a membrane permeable diacylglycerol analogue.
# (A, C) Time-dependent changes of intracellular Ca^2+ concentration ([Ca^2+]i) of fluo-4-loaded induced TRPC3 HEK293 cells (A) and TRPC6 HEK293 cells (C). […] Measurements were performed in 96er well plates using FLIPR (Molecular Devices, Sunnyvale, Calif., USA) (B, D) Determination of norgestimates IC50 value on TRPC3 (B) and TRPC6 (D). […]
smiles,measurement,setting,value
"C#C[C@]1(OC(C)=O)CC[C@H]2[C@@H]3CCC4=C/C(=N/O)CC[C@@H]4[C@H]3CC[C@@]21CC [norgestimate, D-17β-acetoxy-B-ethyl-17α ethinyl-gon-4-en-3-one oxime]",reversibility of TRPC6 current inhibition after wash out,TRPC6 [1],reversible
same,TRPC6 current blocked,"TRPC6 [1]; current at resting membrane potential (-70 mV), n=15",89.9 ±3.1%
same,IC50,"TRPC6 [2]; FLIPR, n=4",5.2 ± 0.4 µM
same,TRPC6-mediated Ca2+ influx following application of OAG,TRPC6 [2]; cells preincubated with 30 μM norgestimate,strongly reduced
